pIC50: −log10 of the molar value.
Key:
CDK2/CycA = CDK2/CycA (Homo sapiens, UniProt P24941); test: CDK2/CycA inhibition (Tables A1, A2); type: biochemical
CDK9/CycT = CDK9/CycT (Homo sapiens, UniProt P50750); test: CDK9/CycT inhibition (Tables A1, A2); type: biochemical
CDK7/CycH = CDK7/CycH (Homo sapiens, UniProt P50613); test: CDK7/CycH inhibition (Tables A1, A2); type: biochemical
Jurkat cells = test: Jurkat proliferation assay (CellTiter-Glo); type: cell-based; settings: for pIC50: Homo sapiens, Jurkat, read-out: Jurkat IC50
Protocol: (§1) Jurkat cells were seeded at a density of 25,000 cells/well in 96-well plates. Cells were then treated with the indicated compounds in a 10-pt dose escalation format from 1 nM to 10 μM or DMSO control for 72 hours. After 72 hours, the cells were assayed using CellTiter-Glo Luminescent Cell Viability Assay (Promega) to determine cell viability by measuring the amount of ATP present in each sample cell population, which is an indicator of cell metabolic activity. […] All data points were performed in biological triplicate. Error bars are +/−SD.
as §1, with “hrs.” for “hours.”, “hrs,” for “hours, the”

Sequence of CDK9/CycT (P50750 whole entry): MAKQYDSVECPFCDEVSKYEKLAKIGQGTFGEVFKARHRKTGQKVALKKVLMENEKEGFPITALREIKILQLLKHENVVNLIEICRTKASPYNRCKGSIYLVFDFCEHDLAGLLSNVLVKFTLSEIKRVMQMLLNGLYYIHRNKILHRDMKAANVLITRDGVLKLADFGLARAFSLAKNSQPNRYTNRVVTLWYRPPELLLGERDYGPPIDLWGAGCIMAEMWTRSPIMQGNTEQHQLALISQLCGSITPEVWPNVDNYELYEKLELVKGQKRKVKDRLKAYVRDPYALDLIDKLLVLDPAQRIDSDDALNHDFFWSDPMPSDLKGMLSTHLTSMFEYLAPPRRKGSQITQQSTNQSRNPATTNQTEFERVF
Sequence of CDK9/CycT (O60563 whole entry partner): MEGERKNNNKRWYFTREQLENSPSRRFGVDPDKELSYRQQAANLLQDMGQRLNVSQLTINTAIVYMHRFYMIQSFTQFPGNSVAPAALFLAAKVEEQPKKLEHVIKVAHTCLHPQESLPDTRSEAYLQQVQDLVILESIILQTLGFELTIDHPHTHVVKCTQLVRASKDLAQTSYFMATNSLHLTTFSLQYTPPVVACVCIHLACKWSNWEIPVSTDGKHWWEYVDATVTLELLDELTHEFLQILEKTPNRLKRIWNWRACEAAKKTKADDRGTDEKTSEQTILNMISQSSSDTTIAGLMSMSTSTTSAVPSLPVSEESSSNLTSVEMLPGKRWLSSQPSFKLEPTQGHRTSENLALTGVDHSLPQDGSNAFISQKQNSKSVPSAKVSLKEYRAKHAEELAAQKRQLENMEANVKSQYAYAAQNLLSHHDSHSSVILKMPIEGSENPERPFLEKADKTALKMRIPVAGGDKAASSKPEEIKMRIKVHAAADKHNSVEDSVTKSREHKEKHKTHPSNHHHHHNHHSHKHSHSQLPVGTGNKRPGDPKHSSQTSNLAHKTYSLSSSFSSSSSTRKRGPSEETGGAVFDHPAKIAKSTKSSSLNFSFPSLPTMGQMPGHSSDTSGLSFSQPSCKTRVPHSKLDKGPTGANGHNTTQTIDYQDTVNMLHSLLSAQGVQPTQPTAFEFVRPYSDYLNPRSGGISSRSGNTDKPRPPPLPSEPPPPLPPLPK
Sequence of CDK7/CycH (P50613 whole entry): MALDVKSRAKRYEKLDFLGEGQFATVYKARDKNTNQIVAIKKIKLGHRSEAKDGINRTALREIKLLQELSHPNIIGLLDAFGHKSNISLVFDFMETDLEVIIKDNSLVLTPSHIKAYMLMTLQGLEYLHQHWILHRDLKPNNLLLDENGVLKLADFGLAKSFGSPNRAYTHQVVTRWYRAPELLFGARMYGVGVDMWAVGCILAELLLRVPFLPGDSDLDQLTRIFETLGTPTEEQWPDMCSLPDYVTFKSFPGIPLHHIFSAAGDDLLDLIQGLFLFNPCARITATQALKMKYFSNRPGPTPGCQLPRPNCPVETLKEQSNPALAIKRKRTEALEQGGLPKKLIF
Sequence of CDK7/CycH (P51946 whole entry partner): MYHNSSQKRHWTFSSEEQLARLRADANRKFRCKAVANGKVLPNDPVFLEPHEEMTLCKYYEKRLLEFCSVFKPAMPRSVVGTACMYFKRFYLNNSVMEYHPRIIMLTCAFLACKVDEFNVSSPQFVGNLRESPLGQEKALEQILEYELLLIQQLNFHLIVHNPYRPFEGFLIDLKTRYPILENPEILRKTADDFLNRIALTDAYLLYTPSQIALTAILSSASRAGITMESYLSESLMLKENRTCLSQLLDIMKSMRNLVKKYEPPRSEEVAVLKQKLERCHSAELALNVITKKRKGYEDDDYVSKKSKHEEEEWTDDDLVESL

pIC50 (CDK2/CycA)	pIC50 (CDK9/CycT)	pIC50 (CDK7/CycH)	pIC50 (Jurkat cells)	Compound	Mode of inhibition of Jurkat T-ALL cell proliferation (Jurkat cells)
6.13	5.87	6.60		C=CC(=O)Nc1cccc(Nc2nc(N[C@H]3CC[C@@H](N(C)C)CC3)nc3c2ncn3C(C)C)c1 [E-1(SB1-E-14), N-(3-(2-((1s,4s)-4-(Dimethylamino)cyclohexylamino)-9-isopropyl-9H-purin-6-ylamino)phenyl)acrylamide]	
7.56		6.78		C=CC(=O)Nc1cccc(CNc2cc(N3CCCC[C@H]3CCO)nc3c(CC)cnn23)c1 [MFH-1-49-1, (S)—N-(3-(((3-ethyl-5-(2-(2-hydroxyethyl)piperidin-1-yl)pyrazolo[1,5-a]pyrimidin-7-yl)amino)methyl)phenyl)acrylamide]	
5.82		6.46		C=CC(=O)Nc1cccc(CNc2cc(N3CCCC[C@@H]3CCO)nc3c(CC)cnn23)c1 [MFH-1-56-1, (R)—N-(3-((3-ethyl-5-(2-(2-hydroxyethyl)piperidin-1-yl)pyrazolo[1,5-a]pyrimidin-7-ylamino)methyl)phenyl)acrylamide]	
6.03	7.62	5.92		C=CC(=O)Nc1cccc(Nc2cc(N3CCCC[C@H]3CCO)nc3c(CC)cnn23)c1 [MFH-1-141-1, (S)—N-(3-(3-ethyl-5-(2-(2-hydroxyethyl)piperidin-1-yl)pyrazolo[1,5-a]pyrimidin-7-ylamino)phenyl)acrylamide]	
< 5.00	6.07	5.60		C=CC(=O)Nc1cccc(Nc2cc(N3CCCC[C@@H]3CCO)nc3c(CC)cnn23)c1 [MFH-1-143-1, (R)—N-(3-(3-ethyl-5-(2-(2-hydroxyethyl)piperidin-1-yl)pyrazolo[1,5-a]pyrimidin-7-ylamino)phenyl)acrylamide]	
6.48	7.61	6.13		C=CC(=O)NC1CCCC(Nc2cc(N3CCCC[C@H]3CCO)nc3c(CC)cnn23)C1 (stereo partly drawn) [MFH-1-167-1, N-(3-(3-ethyl-5-((S)-2-(2-hydroxyethyl)piperidin-1-yl)pyrazolo[1,5-a]pyrimidin-7-ylamino)cyclohexyl)acrylamide]	
5.41	6.87	5.14		C=CC(=O)N[C@H]1CC[C@@H](Nc2cc(N3CCCC[C@H]3CCO)nc3c(CC)cnn23)CC1 [MFH-1-169-1, N-((1R,4s)-4-((3-ethyl-5-((S)-2-(2-hydroxyethyl)piperidin-1-yl)pyrazolo[1,5-a]pyrimidin-7-yl)amino)cyclohexyl)acrylamide]	
5.97	7.32	6.35		C=CC(=O)N[C@H]1CC[C@H](Nc2cc(N3CCCC[C@H]3CCO)nc3c(CC)cnn23)CC1 [MFH-1-175-1, N-((1S,4r)-4-((3-ethyl-5-((S)-2-(2-hydroxyethyl)piperidin-1-yl)pyrazolo[1,5-a]pyrimidin-7-yl)amino)cyclohexyl)acrylamide]	
6.77	7.63	6.55		C=CC(=O)Nc1ccc(Nc2cc(N3CCCC[C@H]3CCO)nc3c(CC)cnn23)cc1 [MFH-1-187-1, (S)—N-(4-((3-ethyl-5-(2-(2-hydroxyethyl)piperidin-1-yl)pyrazolo[1,5-a]pyrimidin-7-yl)amino)phenyl)acrylamide]	
7.27	7.21	5.96		C=CC(=O)Nc1cccc(Nc2nc(N3CCCC[C@H]3CCO)nc3c(CC)cnn23)c1 [MFH-2-53-1, (S)—N-(3-(8-ethyl-2-(2-(2-hydroxyethyl)piperidin-1-yl)pyrazolo[1,5-a][1,3,5]triazin-4-ylamino)phenyl)acrylamide]	
5.99	6.99	7.63		C=CC(=O)Nc1cccc(CNc2nc(N[C@H]3CC[C@H](N(C)C)CC3)nc3c(CC)cnn23)c1 [MFH-2-67-1, N-(3-(((2-(((1r,4r)-4-(dimethylamino)cyclohexyl)amino)-8-ethylpyrazolo[1,5-a][1,3,5]triazin-4-yl)amino)methyl)phenyl)acrylamide]	
< 6.00	7.16	6.07		C=CC(=O)NC1CCCC(Nc2nc(N[C@H]3CC[C@H](N(C)C)CC3)nc3c(CC)cnn23)C1 (stereo partly drawn) [MFH-2-78-1, N-(3-((2-(((1r,4r)-4-(dimethylamino)cyclohexyl)amino)-8-ethylpyrazolo[1,5-a][1,3,5]triazin-4-yl)amino)cyclohexyl)acrylamide]	
5.38	6.33	6.45		C=CC(=O)Nc1cccc(Nc2cc(N3CCCC(N)C3)nc3c(CC)cnn23)c1 (stereo not drawn) [MFH-3-140-1, N-(3-(5-(3-aminopiperidin-1-yl)-3-ethylpyrazolo[1,5-a]pyrimidin-7-ylamino)phenyl)acrylamide]	
5.83	7.23	6.12		C=CC(=O)NC1CCCC(Nc2nc(N[C@H]3CC[C@H](N(C)C)CC3)nc3c2ncn3C(C)C)C1 (stereo partly drawn) [SB1-E-15, N-(3-(2-((1r,4r)-4-(Dimethylamino)cyclohexylamino)-9-isopropyl-9H-purin-6-ylamino)cyclohexyl)acrylamide]	
7.52	6.94	6.59		C=CC(=O)NCc1cccc(Nc2nc(N[C@H]3CC[C@H](N(C)C)CC3)nc3c2ncn3C(C)C)c1 [SB1-E-16, N-(3-(2-((1r,4r)-4-(Dimethylamino)cyclohexylamino)-9-isopropyl-9H-purin-6-ylamino)benzyl)acrylamide]	
7.82	7.38	6.34	7.72	C=CC(=O)Nc1cccc(Nc2nc(N3CCCCC3CCO)nc3c(CC)cnn23)c1 (stereo not drawn) [SB1-E-18, N-(3-(8-Ethyl-2-(2-(2-hydroxyethyl)piperidin-1-yl)pyrazolo[1,5-a][1,3,5]triazin-4-ylamino)phenyl)acrylamide]	irreversiably inhibit
6.53	6.91	6.42		C=CC(=O)Nc1ccc(C(=O)Nc2cccc(Nc3nc(N4CCCCC4CCO)nc4c(CC)cnn34)c2)cc1 (stereo not drawn) [SB1-E-19, 4-Acrylamido-N-(3-(8-ethyl-2-(2-(2-hydroxyethyl)piperidin-1-yl)pyrazolo[1,5-a][1,3,5]triazin-4-ylamino)phenyl)benzamide]	
4.55	7.05	6.61		C=CC(=O)Nc1ccc(C(=O)Nc2cccc(Nc3cc(N[C@H]4CC[C@H](N(C)C)CC4)nc4c(CC)cnn34)c2)cc1 [SB1-E-22, 4-Acrylamido-N-(3-(5-((1r,4r)-4-(dimethylamino)cyclohexylamino)-3-ethylpyrazolo[1,5-a]pyrimidin-7-ylamino)phenyl)benzamide]	
5.90	6.85	6.11		C=CC(=O)Nc1ccc(C(=O)Nc2cccc(Nc3cc(N4CCCCC4CCO)nc4c(CC)cnn34)c2)cc1 (stereo not drawn) [SB1-E-24, 4-Acrylamido-N-(3-(3-ethyl-5-(2-(2-hydroxyethyl)piperidin-1-yl)pyrazolo[1,5-a]pyrimidin-7-ylamino)phenyl)benzamide]	
4.48	6.41	6.39		C=CC(=O)Nc1ccc(C(=O)Nc2cccc(Nc3cc(N[C@H]4CC[C@H](N(C)C)CC4)nc4c(C(C)C)cnn34)c2)cc1 [SB1-E-25, 4-Acrylamido-N-(3-(5-((1r,4r)-4-(dimethylamino)cyclohexylamino)-3-isopropylpyrazolo[1,5-a]pyrimidin-7-ylamino)phenyl)benzamide]	
	6.35	8.03	5.39	CC(C)n1cnc2c(Nc3cccc(NC(=O)c4ccc(NC(=O)/C=C/CN(C)C)cc4)c3)nc(N[C@H]3CC[C@H](N(C)C)CC3)nc21 [THZ-3-49-1, 4-((E)-4-(Dimethylamino)but-2-enamido)-N-(3-((2-(((1r,4r)-4-(dimethylamino)cyclohexyl)amino)-9-isopropyl-9H-purin-6-yl)amino)phenyl)benzamide]	
	6.28	7.94	5.71	CC(C)n1cnc2c(Nc3cccc(NC(=O)c4ccc(NC(=O)/C=C/CN(C)C)cc4)c3)nc(N3CCCC(N)C3)nc21 (stereo not drawn) [THZ-4-119-1, (E)-N-(3-((2-(3-Aminopiperidin-1-yl)-9-isopropyl-9H-purin-6-yl)amino)phenyl)-4-(4-(dimethylamino)but-2-enamido)benzamide]	
< 6.00	5.45	5.44		C=CC(=O)Nc1ccc(C(=O)N2CCCC(Nc3cc(N4CCCC(N)C4)nc4c(CC)cnn34)C2)cc1 (stereo not drawn) [THZ-4-141-1]	
5.15	5.77	< 5.00		C=CC(=O)Nc1ccc(C(=O)N2CCCC(Nc3cc(NC4CCC(N(C)C)CC4)nc4c(CC)cnn34)C2)cc1 (stereo not drawn) [THZ-4-148-1]	
< 6.00	5.64	5.35		C=CC(=O)Nc1ccc(C(=O)N2CCCC(Nc3nc(N4CCCCC4CCO)nc4c3ncn4C(C)C)C2)cc1 (stereo not drawn) [THZ-4-149-1]	
	5.82	6.92	5.87	CC(C)n1cnc2c(Nc3cccc(NC(=O)/C=C/CN(C)C)c3)nc(N[C@H]3CC[C@H](N(C)C)CC3)nc21 [THZ-5-18-1]	
6.25	6.66	7.59		C=CC(=O)Nc1ccc(C(=O)Nc2cccc(Nc3nc(N[C@H]4CC[C@H](N(C)C)CC4)nc4c3ncn4C(C)C)c2)cc1 [THZ-5-38-1, 4-Acrylamido-N-(3-((2-((trans-4-(dimethylamino)cyclohexyl)amino)-9-isopropyl-9H-purin-6-yl)amino)phenyl)benzamide]	
